Laboratory results reported in patent US9458137B2, “Substituted indol-5-ol derivatives and their therapeutical applications” (NantBioScience, Inc., priority 2012, dated 2016).

Assays:
[1] = test system: human MIAPaCa-2 pancreatic carcinoma xenograft; assay: MIAPaCa-2 pancreatic carcinoma xenograft; type: in vivo, athymic nude-Faxn1 mice
Description: The objective of the third study was to evaluate antitumor activities of novel multiple-kinase inhibitor NTW-3475 in human MIAPaCa-2 pancreatic carcinoma xenograft in athymic nude-Faxn1 mice.
Four animals were randomly assigned to study groups. Each animal was weighed, and then injected subcutaneously in the left and right flank area with 0.1 ml of 5.0×10^7 MIAPaCa-2 cells per mL.
Each test or control animal was on a 5-day on, two-day off for two cycles treatment schedule with negative control vehicle, positive control Abraxane at 20 mg/kg or 25, 50 mg/kg of NTW-3475. Tumor growth was measured with a digital hand held caliper twice weekly (once tumor emerges) prior to the first dosing and then two to three times weekly until euthanized.
FIGS. 42-44 depict the results of various concentrations of NTW-3456 on a nude mouse/xenograft the MIAPaCa-2 model of pancreatic carcinoma.
FIGS. 45 and 46 depict the results of various concentrations of NTW-3456, with or without Abraxane on a MiaPaCa-2 model of pancreatic carcinoma.

[2] = test system: human K562 chronic myelogenous leukemia (CML) xenograft; assay: K562 CML xenograft model; type: in vivo, SCID mice; details: various concentrations; scid mouse, K562 cells
Description: The objective of the second study was to evaluate antitumor activities of novel multiple-kinase inhibitor NTW-3475 in human K562 chronic myelogenous leukemia (CML) xenograft model in female SCID mice.
Four to six animals were randomly assigned to study groups. Each animal was weighed, and then injected subcutaneously in the left and right flank area with 0.1 ml of 8.0×10^7 K562 cells per mL.
(§1) Each test or control animal was on a 5-day on, two-day off for two cycles treatment schedule. Tumor growth was measured with a digital hand held caliper twice weekly (once tumor emerges) prior to the first dosing and then two to three times weekly until euthanized. Animals were weighed prior to tumor cell injection, prior to dosing, two to three times weekly with tumor growth measurements, and prior to euthanasia.
FIGS. 34 and 35 depict the results of various concentrations of NTW-3456 on a scid mouse/xenograft model of CML using K562 cells.

[3] = test system: human tumor cell lines of the cancer screening panel; assay: in vitro antiproliferation, NCI 60 cancer cell line panel (SRB); type: cell-based; details: 48 h
Description: NTW-3475 was also tested for its antiproliferative potential using cell lines from the NCI 60 cancer cell line panel.
The human tumor cell lines of the cancer screening panel are grown in RPMI 1640 medium containing 5% fetal bovine serum and 2 mM L-glutamine. For a typical screening experiment, cells are inoculated into 96 well microtiter plates in 100 μL at plating densities ranging from 5,000 to 40,000 cells/well depending on the doubling time of individual cell lines. After cell inoculation, the microtiter plates are incubated at 37° C., 5% CO2, 95% air and 100% relative humidity for 24 h prior to addition of experimental drugs. […]
Following drug addition, the plates are incubated for an additional 48 h at 37° C., 5% CO2, 95% air, and 100% relative humidity. […] Bound stain is subsequently solubilized with 10 mM trizma base, and the absorbance is read on an automated plate reader at a wavelength of 515 nm. […] Using the seven absorbance measurements [time zero, (Tz), control growth, (C), and test growth in the presence of drug at the five concentration levels (Ti)], the percentage growth is calculated at each of the drug concentrations levels. Percentage growth inhibition is calculated as: [(Ti-Tz)/(C-Tz)]×100 for concentrations for which Ti>/=Tz [(Ti-Tz)/Tz]×100 for concentrations for which Ti<Tz.
Three dose response parameters are calculated for each experimental agent. […]

[4] = test system: FLT3 phosphorylation (pFLT3) of MV4-11 tumors; assay: FLT3 phosphorylation in MV4-11 tumor xenografts; type: in vivo, SCID mice; details: 24 hour after single oral 50 mg/kg
Description: (§2) The mice carrying the established MV4-11 tumor xenografts (tumor volume around 150 mm^3) were given an oral dose of 50 mg/kg NTW-3456. At 0, 1, 2, 8, 16, 24 hours after dosing, three were euthanized. The blood samples were collected and plasma was prepared with centrifuge for LCMS assay. And the tumors were harvested, homogenized in lysis buffer, immunoprecipitated with anti-FLT3 antibody FIG. 33.
(§3) The curve (solid dot) is the plot of plasma concentration-time profiles of NTW-3456 after oral administration of 50 mg/kg.

[5] = test system: Pane-1 model of pancreatic carcinoma; assay: Panc-1 pancreatic carcinoma xenograft; type: in vivo; details: with or without Abraxane
Text: FIGS. 48 and 49 depict the results of various concentrations of NTW-3456, with or without Abraxane on a Pane-1 model of pancreatic carcinoma.

[6] = test system: AN3 human endometrial carcinoma carcinoma xenograft; assay: AN3 endometrial carcinoma xenograft; type: in vivo, nude mouse; details: various concentrations; AN3 nude mouse model
Text: (§4) This example assesses NTW-3475's anti-tumor activity using a scid mouse xenograft models for leukemias and nude mouse xenograft models of endometrial, pancreatic and thyroid carcinomas. NTW-3475 combination therapy was also studied in murine xenografts.
FIGS. 39-41 depict the results of various concentrations of NTW-3456 on the AN3 nude mouse/xenograft model of endometrial carcinoma.

[7] = test system: human MV411 human acute myelogenous leukemia (AML) xenograft; type: in vivo, SCID mice; details: various concentrations; scid mouse, MV411 cells
Description: The objective of the first study was to evaluate antitumor activities of the novel multiple-kinase inhibitor NTW-3475 against human MV411 human acute myelogenous leukemia (AML) xenograft model in female SCID mice.
Four or six animals were randomly assigned to each study group. Each animal was injected subcutaneously in the left and right flank area with 0.1 ml of 1.0×10^8 MV411 cells per mL
as §1, with “animal was placed on a” for “animal was on a”, “two cycles of vehicle negative control or 25, 50 mg/kg of NTW-3475. Tumor growth” for “two cycles treatment schedule. Tumor growth”
FIGS. 27-32 depict the results of various concentrations of NTW-3456 on tumor growth in scid mouse/xenograft model of AML using MV411 cells. […] This invention is characterized as it is here was a correlation between the inhibition of the pFLT3 kinase and growth control.

[8] = plasma concentration after oral administration (LCMS); type: in vivo, SCID mice; details: 24 hour after single oral 50 mg/kg; mice with MV4-11 tumor xenografts
Description: as §2, §3

[9] = target: abl T315I mutant (Homo sapiens, UniProt P00519, T315I); assay: kinase activity in abl mutants; type: biochemical
Text: The first study was designed to assess the effect of NTW-3456 on kinase activity. Activity of NTW-3456 for a wide range of kinases and is shown FIGS. 22-24, including mutant kinases thought to play a large role in neoplastic transformation (FIGS. 23 and 24). In addition, NTW-3456 inhibited kinase activity in abl mutants for which no prior inhibitors have been FDA approved. In particular, NTW-3456 inhibits the 2 T315I mutant for which no kinase inhibitor had been known prior to NTW-3456.

[10] = test system: TT human Thyroid carcinoma xenograft; assay: TT thyroid carcinoma xenograft; type: in vivo, nude mouse; details: various concentrations; nude mouse, TT cell model
Text: as §4
FIGS. 36-38 depict the results of various concentrations of NTW-3456 on a nude mouse/xenograft the TT cell model of thyroid carcinoma.

For `C/C=C/c1cc(Nc2cc(N3CCN(C)CC3)nc(Oc3cc(F)c4[nH]c(C)cc4c3F)n2)n[nH]1` [NTW-3456], the anti-tumor activity ([1]; various concentrations, single agent, nude mouse) was “some anti-tumor activity”, the anti-tumor activity ([1]; with or without Abraxane) was “significant anti-tumor activity, especially when used in combination with Abraxane” and the anti-tumor activity [2] was “significant anti-tumor activity, especially at higher doses”. For the same compound, the antiproliferative activity [3] was “seen against AML, CML, thyroid, enodmetrial, gastric, breast, and some pancreatic carcinoma cell lines”, the “inhibition of FLT3 phosphorylation of MV4-11 tumor” value [4] was “more than 60%” and the anti-tumor activity [5] was “significant anti-tumor activity, especially when used in combination with Abraxane”. The anti-tumor activity [6] was “significant anti-tumor activity, especially at higher doses”, the anti-tumor activity [7] was “significant anti-tumor activity, especially at higher doses” and the plasma concentration [8] was 7 nM. For the same compound, the “inhibition of kinase activity” value [9] was “inhibits” and the anti-tumor activity [10] was “significant anti-tumor activity, especially at higher doses”.
